Calls of active or inactive are those of the source. How the calls were made is not given here.
Test system: CCRIS mutagenicity, Ames/micronucleus/aberration tests
Assay: CCRIS mutagenicity studies

Structure (SMILES): Nc1n[nH]c(=S)s1
- mutagenic call (Test System: AMES SALMONELLA TYPHIMURIUM, Strain/Indicator: TA98, Metabolic Activation: HAMSTER, LIVER, S-9, AROCLOR 1254, Method: STANDARD PLATE): inactive; negative
- mutagenic call (Test System: AMES SALMONELLA TYPHIMURIUM, Strain/Indicator: TA98, Metabolic Activation: NONE, Method: STANDARD PLATE): inactive; negative
- mutagenic call (Test System: AMES SALMONELLA TYPHIMURIUM, Strain/Indicator: TA98, Metabolic Activation: RAT, LIVER, S-9, AROCLOR 1254, Method: STANDARD PLATE): inactive; negative
- mutagenic call (Test System: AMES SALMONELLA TYPHIMURIUM, Strain/Indicator: TA100, Metabolic Activation: HAMSTER, LIVER, S-9, AROCLOR 1254, Method: STANDARD PLATE): inactive; negative
- mutagenic call (Test System: AMES SALMONELLA TYPHIMURIUM, Strain/Indicator: TA100, Metabolic Activation: NONE, Method: STANDARD PLATE): inactive; negative
- mutagenic call (Test System: AMES SALMONELLA TYPHIMURIUM, Strain/Indicator: TA100, Metabolic Activation: RAT, LIVER, S-9, AROCLOR 1254, Method: STANDARD PLATE): inactive; negative
- mutagenic call (Test System: AMES SALMONELLA TYPHIMURIUM, Strain/Indicator: TA1535, Metabolic Activation: HAMSTER, LIVER, S-9, AROCLOR 1254, Method: STANDARD PLATE): inactive; negative
- mutagenic call (Test System: AMES SALMONELLA TYPHIMURIUM, Strain/Indicator: TA1535, Metabolic Activation: NONE, Method: STANDARD PLATE): inactive; negative
- mutagenic call (Test System: AMES SALMONELLA TYPHIMURIUM, Strain/Indicator: TA1535, Metabolic Activation: RAT, LIVER, S-9, AROCLOR 1254, Method: STANDARD PLATE): inactive; negative
- mutagenic call (Test System: AMES SALMONELLA TYPHIMURIUM, Strain/Indicator: TA1537, Metabolic Activation: HAMSTER, LIVER, S-9, AROCLOR 1254, Method: STANDARD PLATE): inactive; negative
- mutagenic call (Test System: AMES SALMONELLA TYPHIMURIUM, Strain/Indicator: TA1537, Metabolic Activation: NONE, Method: STANDARD PLATE): inactive; negative
- mutagenic call (Test System: AMES SALMONELLA TYPHIMURIUM, Strain/Indicator: TA1537, Metabolic Activation: RAT, LIVER, S-9, AROCLOR 1254, Method: STANDARD PLATE): inactive; negative
- mutagenic call (Test System: AMES SALMONELLA TYPHIMURIUM, Strain/Indicator: TA1538, Metabolic Activation: HAMSTER, LIVER, S-9, AROCLOR 1254, Method: STANDARD PLATE): inactive; negative
- mutagenic call (Test System: AMES SALMONELLA TYPHIMURIUM, Strain/Indicator: TA1538, Metabolic Activation: NONE, Method: STANDARD PLATE): inactive; negative
- mutagenic call (Test System: AMES SALMONELLA TYPHIMURIUM, Strain/Indicator: TA1538, Metabolic Activation: RAT, LIVER, S-9, AROCLOR 1254, Method: STANDARD PLATE): inactive; negative
- mutagenic call (Test System: MOUSE LYMPHOMA, Strain/Indicator: L5178Y (TK+/TK-), Metabolic Activation: NONE, Method: SUSPENSION/PLATE): active; positive. reevaluation of results: positive
- mutagenic call (Test System: Mouse lymphoma, Strain/Indicator: L5178Y (tk+/tk-), Metabolic Activation: Rat, Liver, S-9, Aroclor 1254, Method: Suspension/plate): inactive; negative

Structure (SMILES): COc1cc2c(c3oc4cccc(O)c4c(=O)c13)[C@@H]1CCO[C@@H]1O2
- mutagenic call (Test System: AMES SALMONELLA TYPHIMURIUM, Strain/Indicator: TA98, Metabolic Activation: RAT, LIVER, S-9, PHENOBARBITAL, Method: STANDARD PLATE): inactive; negative
- mutagenic call (Test System: AMES SALMONELLA TYPHIMURIUM, Strain/Indicator: TA100, Metabolic Activation: RAT, LIVER, S-9, PHENOBARBITAL, Method: STANDARD PLATE): inactive; negative

Structure (SMILES): c1ccc(N(c2ccccc2)c2ccccc2)cc1
- mutagenic call (Test System: AMES SALMONELLA TYPHIMURIUM, Strain/Indicator: TA97, Metabolic Activation: HAMSTER, LIVER, S-9, AROCLOR 1254 (10 OR 30%), Method: PREINCUBATION): inactive; negative
- mutagenic call (Test System: AMES SALMONELLA TYPHIMURIUM, Strain/Indicator: TA97, Metabolic Activation: NONE, Method: PREINCUBATION): inactive; negative
- mutagenic call (Test System: AMES SALMONELLA TYPHIMURIUM, Strain/Indicator: TA97, Metabolic Activation: RAT, LIVER, S-9, AROCLOR 1254 (10 OR 30%), Method: PREINCUBATION): inactive; negative
- mutagenic call (Test System: AMES SALMONELLA TYPHIMURIUM, Strain/Indicator: TA98, Metabolic Activation: HAMSTER, LIVER, S-9, AROCLOR 1254 (10%), Method: PREINCUBATION): inactive; negative
- mutagenic call (Test System: AMES SALMONELLA TYPHIMURIUM, Strain/Indicator: TA98, Metabolic Activation: HAMSTER, LIVER, S-9, AROCLOR 1254 (10 OR 30%), Method: PREINCUBATION): inactive; negative
- mutagenic call (Test System: AMES SALMONELLA TYPHIMURIUM, Strain/Indicator: TA98, Metabolic Activation: NONE, Method: PREINCUBATION): inactive; negative
- mutagenic call (Test System: AMES SALMONELLA TYPHIMURIUM, Strain/Indicator: TA98, Metabolic Activation: RAT, LIVER, S-9, AROCLOR 1254 (10%), Method: PREINCUBATION): inactive; negative
- mutagenic call (Test System: AMES SALMONELLA TYPHIMURIUM, Strain/Indicator: TA98, Metabolic Activation: RAT, LIVER, S-9, AROCLOR 1254 (10 OR 30%), Method: PREINCUBATION): inactive; negative
- mutagenic call (Test System: AMES SALMONELLA TYPHIMURIUM, Strain/Indicator: TA100, Metabolic Activation: HAMSTER, LIVER, S-9, AROCLOR 1254 (10%), Method: PREINCUBATION): inactive; negative
- mutagenic call (Test System: AMES SALMONELLA TYPHIMURIUM, Strain/Indicator: TA100, Metabolic Activation: HAMSTER, LIVER, S-9, AROCLOR 1254 (10 OR 30%), Method: PREINCUBATION): inactive; negative
- mutagenic call (Test System: AMES SALMONELLA TYPHIMURIUM, Strain/Indicator: TA100, Metabolic Activation: NONE, Method: PREINCUBATION): inactive; negative
- mutagenic call (Test System: AMES SALMONELLA TYPHIMURIUM, Strain/Indicator: TA100, Metabolic Activation: RAT, LIVER, S-9, AROCLOR 1254 (10%), Method: PREINCUBATION): inactive; negative
- mutagenic call (Test System: AMES SALMONELLA TYPHIMURIUM, Strain/Indicator: TA100, Metabolic Activation: RAT, LIVER, S-9, AROCLOR 1254 (10 OR 30%), Method: PREINCUBATION): inactive; negative
- mutagenic call (Test System: AMES SALMONELLA TYPHIMURIUM, Strain/Indicator: TA1535, Metabolic Activation: HAMSTER, LIVER, S-9, AROCLOR 1254 (10%), Method: PREINCUBATION): inactive; negative
- mutagenic call (Test System: AMES SALMONELLA TYPHIMURIUM, Strain/Indicator: TA1535, Metabolic Activation: HAMSTER, LIVER, S-9, AROCLOR 1254 (10 OR 30%), Method: PREINCUBATION): inactive; negative
- mutagenic call (Test System: AMES SALMONELLA TYPHIMURIUM, Strain/Indicator: TA1535, Metabolic Activation: NONE, Method: PREINCUBATION): inactive; negative
- mutagenic call (Test System: AMES SALMONELLA TYPHIMURIUM, Strain/Indicator: TA1535, Metabolic Activation: RAT, LIVER, S-9, AROCLOR 1254 (10%), Method: PREINCUBATION): inactive; negative
- mutagenic call (Test System: AMES SALMONELLA TYPHIMURIUM, Strain/Indicator: TA1535, Metabolic Activation: RAT, LIVER, S-9, AROCLOR 1254 (10 OR 30%), Method: PREINCUBATION): inactive; negative
- mutagenic call (Test System: AMES SALMONELLA TYPHIMURIUM, Strain/Indicator: TA1537, Metabolic Activation: HAMSTER, LIVER, S-9, AROCLOR 1254 (10%), Method: PREINCUBATION): inactive; negative
- mutagenic call (Test System: AMES SALMONELLA TYPHIMURIUM, Strain/Indicator: TA1537, Metabolic Activation: HAMSTER, LIVER, S-9, AROCLOR 1254 (10 OR 30%), Method: PREINCUBATION): inactive; negative
- mutagenic call (Test System: AMES SALMONELLA TYPHIMURIUM, Strain/Indicator: TA1537, Metabolic Activation: NONE, Method: PREINCUBATION): inactive; negative
- mutagenic call (Test System: AMES SALMONELLA TYPHIMURIUM, Strain/Indicator: TA1537, Metabolic Activation: RAT, LIVER, S-9, AROCLOR 1254 (10%), Method: PREINCUBATION): inactive; negative
- mutagenic call (Test System: AMES SALMONELLA TYPHIMURIUM, Strain/Indicator: TA1537, Metabolic Activation: RAT, LIVER, S-9, AROCLOR 1254 (10 OR 30%), Method: PREINCUBATION): inactive; negative

Structure (SMILES): Cn1c2c3ccccc3nc-2cc2ccccc21
- mutagenic call (End Point: IN VITRO MICRONUCLEUS, Test System: CHINESE HAMSTER V-79-MZ, Metabolic Activation: NONE): active; positive
- mutagenic call (Test System: CHINESE HAMSTER V-79-MZ, Strain/Indicator: V-79 MZ (HPRT)/6-THIOGUANINE, Metabolic Activation: NONE): inactive; negative

— PubChem BioAssay AID1259407 (Chemical Carcinogenesis Research Information System (CCRIS), 2018)
